The values below are quoted from earlier work in US6417191B1, “Synergistic combinations of zidovudine, 1592U89 and 3TC” (GlaxoSmithKline, priority 1995, dated 2002).

Each structure is given as a SMILES string. Like-named read-outs stand apart in the source and are kept apart here.

For data set [1], the system named is HIV.
Where [2] appears, read: plasma, patients, therapeutic doses of each drug as a single agent.

Take `Nc1nc(=O)n([C@@H]2CS[C@H](CO)O2)cc1F` (relative stereo) [FTC, (2R,cis)-4-amino-5-fluoro-1-(2-hydroxymethyl-1,3-oxathiolan-5-yl)-(1H)-pyrimidin-2-one]: under “in vivo”, the “Peak Level” value is 10 µM and the “Trough Level” value was 0.5 µM.
Turning to `Nc1ccn([C@@H]2CS[C@H](CO)O2)c(=O)n1` (single isomer, unassigned) [3TC], under setting [2], the “Peak Level” value was 9 µM and the “Trough Level” value is 0.7 µM.
Take `Nc1nc(NC2CC2)c2ncn([C@H]3C=C[C@@H](CO)C3)c2n1` (relative stereo) [1592U89, (1S,4R)-cis-4-[2-amino-6-(cyclopropylamino)-9H-purin-9-yl]-2-cyclopentene-1-methanol]: in data set [1], the “activity against HIV” value is “potent activity against HIV”. For the same compound, for the setting “in vivo”, the “Peak Level” value is 3.5 µM and the “Trough Level” value is 0.1 µM.
As to `Cc1cn([C@H]2C[C@H](N=[N+]=[N-])[C@@H](CO)O2)c(=O)[nH]c1=O` [zidovudine, 3′-azido-3′-deoxythymidine], where the note is “in vivo”, the “Peak Level” value was 5 µM and the “Trough Level” value was 0.4 µM.
As to `Nc1ccn(C2CSC(CO)O2)c(=O)n1` (racemic) [BCH-189, 4-amino-1-(2-hydroxymethyl-1,3-oxathiolan-5-yl)-(1H)-pyrimidin-2-one], the “activity against HIV” value in data set [1] is “anti-HIV activity”.
